Assays:
late watergrass = test: Test Example 1: herbicidal activity, application before weed generation under submerged conditions (Table 16, symbol A); format: in vivo, late watergrass (Echinochloa oryzicola)
Outline: (§1)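 Submerged Wagner pots (alluvial soil, 4 cm water) sown with weed seeds and planted with 2.5-leaf rice seedlings; emulsifiable concentrate diluted in water applied to water surface on sowing day. Held in greenhouse at 25-30 °C; injury scored 0-5 by herbicidal rate after three weeks.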

oval-leafed pondweed = test: Test Example 1: herbicidal activity, application before weed generation under submerged conditions (Table 16, symbol C); format: in vivo, oval-leafed pondweed (Monochoria vaginalis)
Outline: as §1

Japanese bulrush = test: Test Example 2: herbicidal activity, application during weed generation under submerged conditions (Table 17, symbol B); format: in vivo, Japanese bulrush (Schoenoplectus juncoides); settings: application during weed generation, submerged conditions
Outline: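 Steps: fill Wagner pots with alluvial soil; add water to give 4 cm depth; sow the species mixed; grow under glass at 25–30° C.; at 1–2 leaves apply water-diluted emulsion formulation to the water surface at a fixed herbicide amount; score after 3 weeks.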

barnyard grass [1] = test: Test Example 3: herbicidal effect by foliage application, Wagner pot (Table 18, symbol H); format: in vivo, barnyard grass (Echinochloa crus-galli)
Outline: (§2)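 Plants were sown in alluvial soil held under 0.1–0.5 cm standing water and grown 14 days in a greenhouse at 25–30 °C. An emulsifiable formulation, water-diluted to the set dose, was then sprayed onto the foliage, and effects were scored three weeks later using previously defined criteria.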

rice flat sedge = test: Test Example 3: herbicidal effect by foliage application, Wagner pot (Table 18, symbol E); format: in vivo, rice flat sedge (Cyperus iria)
Outline: as §2

green foxtail = test: Test Example 4: herbicidal effect by soil treatment (Table 19, symbol G); format: in vivo, green foxtail (Setaria viridis)
Outline: (§3)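 Herbicidal effect was rated 3 weeks after treatment, using the scoring criteria of an earlier test. The compound, formulated as an emulsion and diluted in water to a set herbicide amount, had been sprayed uniformly on soil over freshly sown seeds. Growth took place in a greenhouse at 25° C. to 30° C.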

barnyard grass [2] = test: Test Example 4: herbicidal effect by soil treatment (Table 19, symbol H); format: in vivo, barnyard grass (Echinochloa crus-galli)
Outline: as §3

velvetleaf = test: Test Example 4: herbicidal effect by soil treatment (Table 19, symbol M); format: in vivo, velvetleaf (Abutilon theophrasti)
Outline: as §3

redroot pigweed = test: Test Example 4: herbicidal effect by soil treatment (Table 19, symbol N); format: in vivo, redroot pigweed (Amaranthus retroflexus)
Outline: as §3

chickweed = test: Test Example 4: herbicidal effect by soil treatment (Table 19, symbol P); format: in vivo, common chickweed (Stellaria media)
Outline: as §3

persian speedwell [3] = test: Test Example 4: herbicidal effect by soil treatment (Table 19, symbol R); format: in vivo, Persian speedwell (Veronica persica)
Outline: as §3

southern crabgrass = test: Test Example 5: herbicidal effect by foliage application, plastic box (Table 20, symbol F); format: in vivo, southern crabgrass (Digitaria ciliaris); settings: foliage application, 3 weeks after application
Outline: (§4)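 Foliar spray test: emulsion formulation diluted in water to a set application rate, sprayed onto 14-day-old plants raised in diluvial soil at 25° C to 30° C under glass. Both herbicidal effect and crop effect rated visually three weeks later.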

barnyard grass [4] = test: Test Example 5: herbicidal effect by foliage application, plastic box (Table 20, symbol H); format: in vivo, barnyard grass (Echinochloa crus-galli); settings: foliage application, 3 weeks after application
Outline: as §4

wild oat = test: Test Example 5: herbicidal effect by foliage application, plastic box (Table 20, symbol I); format: in vivo, wild oat (Avena fatua); settings: foliage application, 3 weeks after application
Outline: as §4

blackgrass = test: Test Example 5: herbicidal effect by foliage application, plastic box (Table 20, symbol J); format: in vivo, blackgrass (Alopecurus myosuroides); settings: foliage application, 3 weeks after application
Outline: as §4

persian speedwell [5] = test: Test Example 5: herbicidal effect by foliage application, plastic box (Table 20, symbol R); format: in vivo, Persian speedwell (Veronica persica); settings: foliage application, 3 weeks after application
Outline: as §4

| SMILES | Herbicidal effect on A: late watergrass (grade 0-5) (late watergrass; 320 g/ha applied herbicide) | Herbicidal effect on C: oval-leafed pondweed (grade 0-5) (oval-leafed pondweed; 320 g/ha applied herbicide) | herbicidal effect rating, B: Japanese bulrush (Japanese bulrush; AAH 320 g/ha) | herbicidal effect on H (barnyard grass), rating 0-5 (barnyard grass [1]; 320 g/ha) | herbicidal effect on E (rice flat sedge), rating 0-5 (rice flat sedge; 320 g/ha) | G: green foxtail, herbicidal effect rating (green foxtail; AAH 320 g/ha) | H: barnyard grass, herbicidal effect rating (barnyard grass [2]; AAH 320 g/ha) | M: velvetleaf, herbicidal effect rating (velvetleaf; AAH 320 g/ha) | N: redroot pigweed, herbicidal effect rating (redroot pigweed; AAH 320 g/ha) | P: chickweed, herbicidal effect rating (chickweed; AAH 320 g/ha) | R: persian speedwell, herbicidal effect rating (persian speedwell [3]; AAH 320 g/ha) | effect on southern crabgrass (F) (southern crabgrass; 320 g/ha) | effect on barnyard grass (H) (barnyard grass [4]; 320 g/ha) | effect on wild oat (I) (wild oat; 320 g/ha) | effect on blackgrass (J) (blackgrass; 320 g/ha) | effect on persian speedwell (R) (persian speedwell [5]; 320 g/ha) | further results |
| --- | --- | --- | --- | --- | --- | --- | --- | --- | --- | --- | --- | --- | --- | --- | --- | --- | --- |
| Cc1nn(C)c(=O)c(-c2c(-c3ccc(OCCC(F)(F)F)cc3)sc3ccccc23)c1O [1-206] | 5 (Herbicidal rate of 90% or more (almost completely withered)) | 5 (Herbicidal rate of 90% or more (almost completely withered)) | 3 (Herbicidal rate of 40% or more and less than 70%) | 5 (Herbicidal rate of 90% or more (almost completely withered)) | 5 (Herbicidal rate of 90% or more (almost completely withered)) | 5 (Herbicidal rate of 90% or more (almost completely withered)) | 5 (Herbicidal rate of 90% or more (almost completely withered)) | 3 (Herbicidal rate of 40% or more and less than 70%) | 5 (Herbicidal rate of 90% or more (almost completely withered)) | 3 (Herbicidal rate of 40% or more and less than 70%) | 5 (Herbicidal rate of 90% or more (almost completely withered)) | 5 (Herbicidal rate of 90% or more (almost completely withered)) | 5 (Herbicidal rate of 90% or more (almost completely withered)) | 2 (Herbicidal rate of 20% or more and less than 40%) | 5 (Herbicidal rate of 90% or more (almost completely withered)) | 5 (Herbicidal rate of 90% or more (almost completely withered)) | – |
| C=C(C)COc1ccc(-c2sc3ccccc3c2-c2c(O)c(C)nn(C)c2=O)cc1 [1-208] | 5 (Herbicidal rate of 90% or more (almost completely withered)) | 5 (Herbicidal rate of 90% or more (almost completely withered)) | 3 (Herbicidal rate of 40% or more and less than 70%) | 5 (Herbicidal rate of 90% or more (almost completely withered)) | 4 (Herbicidal rate of 70% or more and less than 90%) | 0 (Herbicidal rate of 5% or less (almost no effect)) | 0 (Herbicidal rate of 5% or less (almost no effect)) | 0 (Herbicidal rate of 5% or less (almost no effect)) | 0 (Herbicidal rate of 5% or less (almost no effect)) | 3 (Herbicidal rate of 40% or more and less than 70%) | 5 (Herbicidal rate of 90% or more (almost completely withered)) | 5 (Herbicidal rate of 90% or more (almost completely withered)) | 5 (Herbicidal rate of 90% or more (almost completely withered)) | 4 (Herbicidal rate of 70% or more and less than 90%) | 4 (Herbicidal rate of 70% or more and less than 90%) | 5 (Herbicidal rate of 90% or more (almost completely withered)) | – |
| C=C(Br)COc1ccc(-c2sc3ccccc3c2-c2c(O)c(C)nn(C)c2=O)cc1 [1-215] | 5 (Herbicidal rate of 90% or more (almost completely withered)) | 4 (Herbicidal rate of 70% or more and less than 90%) | 3 (Herbicidal rate of 40% or more and less than 70%) | 5 (Herbicidal rate of 90% or more (almost completely withered)) | 5 (Herbicidal rate of 90% or more (almost completely withered)) | 0 (Herbicidal rate of 5% or less (almost no effect)) | 0 (Herbicidal rate of 5% or less (almost no effect)) | 0 (Herbicidal rate of 5% or less (almost no effect)) | 5 (Herbicidal rate of 90% or more (almost completely withered)) | 1 (Herbicidal rate of 5% or more and less than 20%) | 3 (Herbicidal rate of 40% or more and less than 70%) | 2 (Herbicidal rate of 20% or more and less than 40%) | 5 (Herbicidal rate of 90% or more (almost completely withered)) | 3 (Herbicidal rate of 40% or more and less than 70%) | 2 (Herbicidal rate of 20% or more and less than 40%) | 5 (Herbicidal rate of 90% or more (almost completely withered)) | – |
| Cc1nn(C)c(=O)c(-c2c(-c3ccc(OCCC4OCCO4)cc3)sc3ccccc23)c1O [1-223] | – | – | – | – | – | – | – | – | – | – | – | – | – | – | – | – | Herbicidal effect on A: late watergrass (grade 0-5) (late watergrass; 246 g/ha applied herbicide): 5 (Herbicidal rate of 90% or more (almost completely withered)); Herbicidal effect on C: oval-leafed pondweed (grade 0-5) (oval-leafed pondweed; 246 g/ha applied herbicide): 4 (Herbicidal rate of 70% or more and less than 90%); herbicidal effect rating, B: Japanese bulrush (Japanese bulrush; AAH 246 g/ha): 3 (Herbicidal rate of 40% or more and less than 70%); herbicidal effect on H (barnyard grass), rating 0-5 (barnyard grass [1]; 246 g/ha): 5 (Herbicidal rate of 90% or more (almost completely withered)); herbicidal effect on E (rice flat sedge), rating 0-5 (rice flat sedge; 246 g/ha): 4 (Herbicidal rate of 70% or more and less than 90%); G: green foxtail, herbicidal effect rating (green foxtail; AAH 246 g/ha): 2 (Herbicidal rate of 20% or more and less than 40%); H: barnyard grass, herbicidal effect rating (barnyard grass [2]; AAH 246 g/ha): 3 (Herbicidal rate of 40% or more and less than 70%); M: velvetleaf, herbicidal effect rating (velvetleaf; AAH 246 g/ha): 0 (Herbicidal rate of 5% or less (almost no effect)); N: redroot pigweed, herbicidal effect rating (redroot pigweed; AAH 246 g/ha): 4 (Herbicidal rate of 70% or more and less than 90%); P: chickweed, herbicidal effect rating (chickweed; AAH 246 g/ha): 0 (Herbicidal rate of 5% or less (almost no effect)); R: persian speedwell, herbicidal effect rating (persian speedwell [3]; AAH 246 g/ha): 0 (Herbicidal rate of 5% or less (almost no effect)); effect on southern crabgrass (F) (southern crabgrass; 246 g/ha): 4 (Herbicidal rate of 70% or more and less than 90%); effect on barnyard grass (H) (barnyard grass [4]; 246 g/ha): 5 (Herbicidal rate of 90% or more (almost completely withered)); effect on wild oat (I) (wild oat; 246 g/ha): 3 (Herbicidal rate of 40% or more and less than 70%); effect on blackgrass (J) (blackgrass; 246 g/ha): 2 (Herbicidal rate of 20% or more and less than 40%); effect on persian speedwell (R) (persian speedwell [5]; 246 g/ha): 5 (Herbicidal rate of 90% or more (almost completely withered)) |
| CSCCSCc1ccc(-c2sc3ccccc3c2-c2c(O)c(C)nn(C)c2=O)cc1 [1-253] | 3 (Herbicidal rate of 40% or more and less than 70%) | 0 (Herbicidal rate of 5% or less (almost no effect)) | 0 (Herbicidal rate of 5% or less (almost no effect)) | 5 (Herbicidal rate of 90% or more (almost completely withered)) | 3 (Herbicidal rate of 40% or more and less than 70%) | 0 (Herbicidal rate of 5% or less (almost no effect)) | 0 (Herbicidal rate of 5% or less (almost no effect)) | 0 (Herbicidal rate of 5% or less (almost no effect)) | 3 (Herbicidal rate of 40% or more and less than 70%) | 3 (Herbicidal rate of 40% or more and less than 70%) | 5 (Herbicidal rate of 90% or more (almost completely withered)) | 1 (Herbicidal rate of 5% or more and less than 20%) | 5 (Herbicidal rate of 90% or more (almost completely withered)) | 0 (Herbicidal rate of 5% or less (almost no effect)) | 0 (Herbicidal rate of 5% or less (almost no effect)) | 5 (Herbicidal rate of 90% or more (almost completely withered)) | – |

Reference: US20230085307A1, “PYRIDAZINONE COMPOUND AND HERBICIDE” (NISSAN CHEMICAL CORPORATION, priority 2019, published 2023)
